Where a SMILES comes first, the peptide text is derived from it. Bridges are numbered along the chain shown (N, C = ends). [ ]: non-standard residue; d: D form. The star is where a group is joined. Ileψ(thiazoline)Cys = CC[C@H](C)[C@H](N)C1=N[C@H](C(=O)*)CS1; dOrn = NCCC[C@@H](N)C(=O)O
Tests used:
SARS-CoV-2 = SARS-CoV-2 Cytopathic Effect (CPE) reduction assay in Vero E6 cells; type: cell-based; conditions: Severe acute respiratory syndrome coronavirus 2, Vero C1008, 72 h
[1] = system: pigs with dermatome wounds; assay: Pig dermatome wound healing model; type: in vivo; conditions: dermatome wounds 40×40 mm at a depth of 0.76 mm, topical treatment
Experimental: In a first assessment in a pig model setting, using a dermatome, six wounds were made on each pig with three on the left side and three on the right side of each pig covering a surface area of 40×40 mm at a depth of 0.76 mm. […] For each pig, the wounds on the left of the animal were treated while the wounds on the right wide were left as untreated controls. […] Standard of care was advised on by veterinarians with experience in dealing with wound management in a farm setting.

Row | SMILES | EC50 (SARS-CoV-2) [µM] | wound healing [1]
1 | CCC(CC)COC(=O)[C@H](C)N[P@](=O)(OC[C@H]1O[C@@](C#N)(c2ccc3c(N)ncnn23)[C@H](O)[C@@H]1O)Oc1ccccc1 [Remdesivir, reference compound] | 4.5 | 
2 | CC[C@H](C)[C@H](N)C1=N[C@H](C(=O)N[C@@H](CC(C)C)C(=O)N[C@H](CCC(=O)O)C(=O)N[C@H](C(=O)N[C@H]2CCCCNC(=O)[C@H](CC(N)=O)NC(=O)[C@@H](CC(=O)O)NC(=O)[C@H](Cc3cnc[nH]3)NC(=O)[C@@H](Cc3ccccc3)NC(=O)[C@H]([C@@H](C)CC)NC(=O)[C@@H](CCCN)NC2=O)[C@@H](C)CC)CS1 [bacitracin, reference compound] ({Ileψ(thiazoline)Cys}-L[dE]IK[dOrn]I[dF]H[dD]N; lactam 4-C) |  | treated wounds were still open after one week
